Reference: US20220280594A1, “APPLICATION OF POLYPEPTIDE OR DERIVATIVE THEREOF” (CHENGDU HUITAI BIOMEDICINE CO., LTD., priority 2019, published 2022)

Experiments:
Assay type in all cases: cell-based
[1] = tested on: human lung squamous carcinoma cells (NCI-H226); assay: scratch assay, migration of NCI-H226 cells; conditions: NCI-H226, 10 μM, 48 hours; control group 65.31 ± 3.19
Method: (§1) In the scratch assay, the cell migration rate was negatively correlated with the inhibitory effect of the drug component on tumor cell migration ability. The cell migration inhibition experiment was described as follows: tumor cells were cultured in vitro, cells in logarithmic growth phase were collected and seeded evenly in a 24-well plate at a density of 1-2×10^5 cells/well; the cells were cultured in a cell incubator until a monolayer was formed; a scratch tool was used to make a “-” (straight) scratch on the monolayer of cells; the cells were washed 1-3 times with PBS, and a medium (with 2% fetal bovine serum) containing specific test components was added to the culture. Experimental grouping: PBS control group; polypeptide or derivative thereof treatment group (N1-N54), 10 μM. Three independent parallel wells were set up in each group, and the cells were cultured continuously in a cell incubator for 48 hours. […] At least 3 representative images for each well were taken. ImageJ software was used to count the migration distance of the cells, and the cell migration rate was calculated as: cell migration rate (%)=(width of original scratch−width of current scratch)/width of original scratch×100.
This example was a scratch assay to evaluate the inhibitory effect of the polypeptide or derivative thereof (N1-N54) on the migration ability of human lung squamous carcinoma cells (NCI-H226). The experimental method was as described in Example 2.

[2] = tested on: human pancreatic cancer cells (PANC-1); assay: transwell migration assay, PANC-1 cells; conditions: PANC-1 transwell migration, 10 μM, 24 hours; control group 360 ± 60
Method: The Transwell chamber system was used in the transwell cell migration experiment. The chamber has an upper layer and a lower layer, which are separated by an artificial semipermeable membrane in the middle. Cells that have migrated through the semi-permeable membrane will attach to the lower surface of the semi-permeable membrane. The migration ability is evaluated by counting the number of cells on the lower surface of the semi-permeable membrane. The number of cells that have migrated is negatively correlated with the inhibitory effect of the drug on the migration ability of the tumor cells. Transwell migration assay was performed as follows: tumor cells were cultured in vitro, cells in logarithmic growth phase were collected, and cell suspension was prepared with fresh serum-free medium at a density of 2-3×10^5 cells/mL. Cells were inoculated, 100 μL/well cell suspension (serum-free medium) in the upper chamber and 600 μL/well complete culture medium in the lower chamber. After incubated in 37° C., 5% CO2 incubator for 4-5 hours, serum-free medium (100 μL/well) was added to the control group, and serum-free medium containing polypeptide or derivative thereof (N1-N54) was added to the upper chamber of the treatment group (100 μL/well), the final concentration of the peptide or derivative thereof in the upper chamber was 10 μM. The cells were incubated continuously for 24 hours, and then fixed with methanol and stained with crystal violet. Images were taken under a microscope and the number of migrated cells was counted with ImageJ.
This example was a transwell cell migration experiment to evaluate the inhibitory effect of the polypeptide or derivative thereof (N1-N54) on the migration ability of human pancreatic cancer cells (PANC-1). The experimental method was as described in Example 3.

[3] = tested on: human liver cancer cells (HepG2); assay: scratch assay, migration of HepG2 cells; conditions: HepG2, 10 μM, 48 hours; control group 71.01 ± 6.63
Method: as §1
This example was a scratch assay to evaluate the inhibitory effect of the polypeptide or derivative thereof (N1-N54) on the migration ability of human liver cancer cells (HepG2). The experimental method was as described in Example 2.

[4] = tested on: human breast cancer cells (MDA-MB-453); assay: scratch assay, migration of MDA-MB-453 cells; conditions: MDA-MB-453, 10 μM, 48 hours; control group 32.42 ± 2.04
Method: as §1
This example was a scratch assay to evaluate the inhibitory effect of the polypeptide or derivative thereof (N1-N54) on the migration ability of human breast cancer cells (MDA-MB-453). The experimental method was as described in Example 2.

[5] = tested on: human breast cancer cells (MCF-7); assay: scratch assay, migration of MCF-7 cells; conditions: MCF-7, 10 μM, 48 hours; control group 30.97 ± 1.79
Method: as §1
This example was a scratch assay to evaluate the inhibitory effect of the polypeptide or derivative thereof (N1-N54) on the migration ability of human breast cancer cells (MCF-7). The experimental method was as described in Example 2.

[6] = tested on: human oral epidermoid carcinoma KB cells; assay: scratch assay, migration of KB cells; conditions: 10 μM, 48 hours, control group 54.03 ± 4.21
Method: as §1
This example was a scratch assay to evaluate the inhibitory effect of the polypeptide or derivative thereof (N1-N54) on the migration ability of human oral epidermoid carcinoma cells (KB). The experimental method was as described in Example 2.

[7] = tested on: human pharyngeal squamous-cell carcinoma cells (Fadu); assay: scratch assay, migration of Fadu cells; conditions: 10 μM, 48 hours, control group 28.76 ± 4.08
Method: as §1
This example was a scratch assay to evaluate the inhibitory effect of the polypeptide or derivative thereof (N1-N54) on the migration ability of human pharyngeal squamous-cell carcinoma cells (Fadu). The experimental method was as described in Example 2.

[8] = tested on: human prostate cancer cells (22RV1); assay: scratch assay, migration of 22RV1 cells; conditions: 22RV1, 10 μM, 48 hours; control group 25.41 ± 5.01
Method: as §1
This example was a scratch assay to evaluate the inhibitory effect of the polypeptide or derivative thereof (N1-N54) on the migration ability of human prostate cancer cells (22RV1). The experimental method was as described in Example 2.

Substance	Migration rate (%) (mean ± SD, P) [1]	Number of cells (mean ± SD, P), migrated cells [2]	Migration rate (%) (mean ± SD, P) [3]	Migration rate (%) (mean ± SD, P) [4]	Migration rate (%) (mean ± SD, P) [5]	Migration rate (%) (mean ± SD, P) [6]	Migration rate (%) (mean ± SD, P) [7]	Migration rate (%) (mean ± SD, P) [8]
N12: SEQ ID NO: 1 with deletion of position 18 and positions 1-2 (VRFLAKENVTQDAED)	13.18 ± 6.31,*** %	246 ± 14,*	48.01 ± 5.38,** %	6.32 ± 1.78,*** %	11.65 ± 3.32,** %	11.53 ± 2.78,*** %	17.72 ± 2.53,** %	6.61 ± 2.83,** %
N13: SEQ ID NO: 1 with deletion of positions 15-18 and positions 1-5 (LAKENVTQD)	11.29 ± 8.97,*** %	255 ± 24,*	45.91 ± 4.70,** %	9.28 ± 2.43,*** %	13.79 ± 2.05,** %	14.53 ± 3.53,** %	9.38 ± 2.46,*** %	9.77 ± 3.66,* %
N14: SEQ ID NO: 1 with deletion of positions 1-5 and addition of one amino acid at the carboxyl terminal (LAKENVTQDAEDNC)	19.97 ± 2.94,*** %	263 ± 16,*	48.61 ± 4.63,** %	7.58 ± 2.34,*** %	7.05 ± 1.40,*** %	11.22 ± 2.66,*** %	12.90 ± 2.47,** %	14.06 ± 2.37,* %
N15: SEQ ID NO: 1 with substitution N18R and addition of one amino acid to the carboxyl terminal (YRVRFLAKENVTQDAEDRC)	35.05 ± 3.95,** %	220 ± 18,**	53.20 ± 5.58,* %	8.95 ± 2.93,*** %	11.57 ± 2.10,** %	40.62 ± 3.53,* %	12.45 ± 4.28,** %	8.36 ± 2.03,** %
N16: SEQ ID NO: 1 with substitution A7R and addition of one amino acid at the carboxyl terminus (YRVRFLRKENVTQDAEDNC)	21.10 ± 8.01,*** %	230 ± 28,*	43.25 ± 5.18,** %	8.11 ± 1.71,*** %	9.81 ± 3.29,** %	18.28 ± 3.45,** %	5.51 ± 1.32,*** %	9.75 ± 2.14,** %
N17: SEQ ID NO: 1 with addition of two amino acids to the carboxyl terminal (YRVRFLAKENVTQDAEDNCT)	43.38 ± 4.83,** %	244 ± 14,*	43.42 ± 3.16,** %	4.51 ± 1.96,*** %	11.47 ± 4.24,** %	14.35 ± 2.52,** %	8.78 ± 2.34,*** %	4.61 ± 1.64,** %
N18: SEQ ID NO: 1 with addition of one amino acid at the amino terminal and one at the carboxyl terminal (FYRVRFLAKENVTQDAEDNC)	48.17 ± 3.85,** %	232 ± 24,*	48.73 ± 3.52,** %	9.97 ± 2.44,*** %	10.40 ± 2.72,** %	12.67 ± 2.33,*** %	6.29 ± 2.62,*** %	6.75 ± 3.22,** %
N19: SEQ ID NO: 1 with deletion of positions 1-5 and 15-18 and addition of two amino acids at the carboxyl terminal (LAKENVTQDRC)	16.80 ± 8.02,*** %	238 ± 27,*	12.10 ± 6.15,*** %	25.49 ± 2.69,* %	11.84 ± 3.95,** %	8.14 ± 2.21,*** %	17.23 ± 3.53,* %	5.36 ± 1.6,** %
N20: SEQ ID NO: 1 with addition of one amino acid at the amino terminal and deletion of position 18 (RYRVRFLAKENVTQDAED)	19.54 ± 6.51,*** %	244 ± 23,*	14.22 ± 6.12,*** %	7.67 ± 1.35,** %	13.73 ± 4.97,** %	6.92 ± 3.28,*** %	15.21 ± 4.90,* %	4.88 ± 1.48,** %
N21: SEQ ID NO: 1 with deletion of positions 1-5 and 15-18 and addition of one amino acid at the amino terminal (SLAKENVTQD)	13.58 ± 6.67,*** %	216 ± 12,***	15.00 ± 7.29,*** %	13.59 ± 2.07,** %	10.43 ± 2.18,** %	9.87 ± 2.84,*** %	16.87 ± 6.77,* %	12.79 ± 3.06,* %
N22: SEQ ID NO: 1 with substitution A7R, deletion of three amino acids at the amino terminal and of positions 15-18 (RFLRKENVTQD)	18.69 ± 5.25,*** %	200 ± 18,***	18.61 ± 8.35,*** %	8.54 ± 1.57,** %	8.79 ± 3.01,** %	10.02 ± 2.35,*** %	15.11 ± 4.99,* %	6.10 ± 2.72,** %
